Experimental data from patent publication US10738056B2 (Aduro BioTech, Inc., priority 2017, dated 2020).

Legend:
[1] = target: Human cGAS amino acids 155-522 (Homo sapiens (Human), UniProt Q8N884); assay: cGAS biochemical activity assay (ATP remaining, Kinase-Glo Max luminescence); conditions: human cGAS 155-522, ATP remaining (Kinase-Glo Max); read-out: cGAS IC50
[2] = test system: cGAS/STING pathway in THP1 cells; assay: THP1 cell-based cGAS/STING pathway activity assay (IRF-3-linked luciferase reporter); conditions: Homo sapiens, THP-1
How it was run: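 THP1 cells carrying an IRF-3-driven luciferase reporter were read across a range of compound concentrations, and IC50 values were derived from these concentration responses; the assay upper limit was 100 μM.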

Human cGAS amino acids 155-522, sequence (Q8N884 157-522): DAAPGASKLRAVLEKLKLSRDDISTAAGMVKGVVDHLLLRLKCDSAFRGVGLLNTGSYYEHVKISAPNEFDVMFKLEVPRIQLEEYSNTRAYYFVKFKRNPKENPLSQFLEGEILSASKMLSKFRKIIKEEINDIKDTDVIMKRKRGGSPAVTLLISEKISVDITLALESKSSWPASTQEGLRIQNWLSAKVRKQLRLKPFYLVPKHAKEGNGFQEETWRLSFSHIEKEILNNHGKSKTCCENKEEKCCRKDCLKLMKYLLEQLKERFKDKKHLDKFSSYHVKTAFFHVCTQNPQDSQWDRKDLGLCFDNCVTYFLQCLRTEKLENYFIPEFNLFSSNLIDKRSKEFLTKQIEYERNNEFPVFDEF

Compound | IC50 [1] | IC50 [2]
Cc1[nH]c2c(-c3ccccc3)c(C(F)(F)F)nn2c(=O)c1C1=N[C@@H](C(=O)O)[C@H](C)O1 [Compound C1213, (4R,5S)-5-methyl-2-(5-methyl-7-oxo-3-phenyl-2-(trifluoromethyl)-4,7-dihydropyrazolo[1,5-a]pyrimidin-6-yl)-4,5-dihydrooxazole-4-carboxylic acid] | < 20 µM | 20 to 100 µM
Cc1[nH]c2c(-c3ccccc3)c(C(F)(F)F)nn2c(=O)c1C1=NC(C(=O)O)[C@H](C)O1 (stereo partly drawn) [Compound C1216, (5S)-5-methyl-2-(5-methyl-7-oxo-3-phenyl-2-(trifluoromethyl)-4,7-dihydropyrazolo[1,5-a]pyrimidin-6-yl)-4,5-dihydrooxazole-4-carboxylic acid] | < 20 µM | > 100 µM
COc1nc(N)cc2oc(-c3c(C)[nH]c4c(-c5ccccc5)c(C#N)nn4c3=O)nc12 [Compound C1218, 6-(6-amino-4-methoxyoxazolo[4,5-c]pyridin-2-yl)-5-methyl-7-oxo-3-phenyl-4,7-dihydropyrazolo[1,5-a]pyrimidine-2-carbonitrile] | < 20 µM | > 100 µM
COc1cccc2oc(-c3c(C(=O)NCC(C)(C)O)[nH]c4c(-c5ccccc5)c(C(F)(F)F)nn4c3=O)nc12 [Compound C1219, N-(2-hydroxy-2-methylpropyl)-6-(4-methoxybenzo[d]oxazol-2-yl)-7-oxo-3-phenyl-2-(trifluoromethyl)-4,7-dihydropyrazolo[1,5-a]pyrimidine-5-carboxamide] | < 20 µM | > 100 µM
Cc1[nH]c2c(-c3ccccc3)c(C#N)nn2c(=O)c1-c1nc2ccccc2o1 [Compound C1222, 6-(benzo[d]oxazol-2-yl)-5-methyl-7-oxo-3-phenyl-4,7-dihydropyrazolo[1,5-a]pyrimidine-2-carbonitrile] | < 20 µM | 20 to 100 µM
Cc1[nH]c2c(-c3ccccc3)c(C#N)nn2c(=O)c1-c1nc2c(N)cccc2o1 [Compound C1223, 6-(4-aminobenzo[d]oxazol-2-yl)-5-methyl-7-oxo-3-phenyl-4,7-dihydropyrazolo[1,5-a]pyrimidine-2-carbonitrile] | < 20 µM | 20 to 100 µM
COc1ccc(CO)c2oc(-c3c(C)[nH]c4c(-c5ccccc5)c(C(F)(F)F)nn4c3=O)nc12 [Compound C1224, 6-(7-(hydroxymethyl)-4-methoxybenzo[d]oxazol-2-yl)-5-methyl-3-phenyl-2-(trifluoromethyl)pyrazolo[1,5-a]pyrimidin-7(4H)-one] | < 20 µM | > 100 µM
COc1cccc2oc(-c3c(COCCO)[nH]c4c(-c5ccccc5)c(C(F)(F)F)nn4c3=O)nc12 [Compound C1226, 5-((2-hydroxyethoxy)methyl)-6-(4-methoxybenzo[d]oxazol-2-yl)-3-phenyl-2-(trifluoromethyl)pyrazolo[1,5-a]pyrimidin-7(4H)-one] | < 20 µM | 20 to 100 µM
COCc1[nH]c2c(-c3ccccc3)c(C#N)nn2c(=O)c1-c1nc2c(OC)nc(N)cc2o1 [Compound C1227, 6-(6-amino-4-methoxyoxazolo[4,5-c]pyridin-2-yl)-5-(methoxymethyl)-7-oxo-3-phenyl-4,7-dihydropyrazolo[1,5-a]pyrimidine-2-carbonitrile] | < 20 µM | > 100 µM
Cc1[nH]c2c(-c3ccccc3)c(C(F)(F)F)nn2c(=O)c1-c1nc2ccccc2n1-c1ccccc1 [Compound C1229, 5-methyl-3-phenyl-6-(1-phenyl-1H-benzo[d]imidazol-2-yl)-2-(trifluoromethyl)pyrazolo[1,5-a]pyrimidin-7(4H)-one] | 20 to 250 µM | < 20 µM
Cc1[nH]c2c(-c3ccccc3)c(C#N)nn2c(=O)c1-c1nc2cccc(N)c2o1 [Compound C1230, 6-(7-aminobenzo[d]oxazol-2-yl)-5-methyl-7-oxo-3-phenyl-4,7-dihydropyrazolo[1,5-a]pyrimidine-2-carbonitrile] | < 20 µM | > 100 µM
Cc1[nH]c2c(-c3ccccc3)c(C(F)(F)F)nn2c(=O)c1-c1nc2ccccc2n1CC(F)(F)F [Compound C1231, 5-methyl-3-phenyl-6-(1-(2,2,2-trifluoroethyl)-1H-benzo[d]imidazol-2-yl)-2-(trifluoromethyl)pyrazolo[1,5-a]pyrimidin-7(4H)-one] | 20 to 250 µM | < 20 µM

Other lines, results leading:

IC50 [1] | IC50 [2] | Compound
< 20 µM | 20 to 100 µM | COc1cccc2oc(-c3c(COCC(F)F)[nH]c4c(-c5ccccc5)c(C(F)(F)F)nn4c3=O)nc12 [Compound C1232, 5-((2,2-difluoroethoxy)methyl)-6-(4-methoxybenzo[d]oxazol-2-yl)-3-phenyl-2-(trifluoromethyl)pyrazolo[1,5-a]pyrimidin-7(4H)-one]
< 20 µM | > 100 µM | COc1cccc2oc(-c3c(C4=CCC(C(=O)O)CC4)[nH]c4c(-c5ccccc5)c(C(F)(F)F)nn4c3=O)nc12 (stereo not shown) [Compound C1234, 4-(6-(4-methoxybenzo[d]oxazol-2-yl)-7-oxo-3-phenyl-2-(trifluoromethyl)-4,7-dihydropyrazolo[1,5-a]pyrimidin-5-yl)cyclohex-3-ene-1-carboxylic acid]
< 20 µM | < 20 µM | COc1cc(C(C)O)cc2oc(-c3c(C)[nH]c4c(-c5ccccc5)c(C#N)nn4c3=O)nc12 (stereo not shown) [Compound C1240, 6-(6-(1-hydroxyethyl)-4-methoxybenzo[d]oxazol-2-yl)-5-methyl-7-oxo-3-phenyl-4,7-dihydropyrazolo[1,5-a]pyrimidine-2-carbonitrile]
< 20 µM | < 20 µM | C=Cc1nn2c(=O)c(-c3nc4c(OC)cccc4o3)c(C)[nH]c2c1-c1ccccc1 [Compound C1241, 6-(4-methoxybenzo[d]oxazol-2-yl)-5-methyl-3-phenyl-2-vinylpyrazolo[1,5-a]pyrimidin-7(4H)-one]
< 20 µM | < 20 µM | COCCOCc1[nH]c2c(-c3ccccc3)c(C#N)nn2c(=O)c1-c1nc2c(OC)cccc2o1 [Compound C1243, 6-(4-methoxybenzo[d]oxazol-2-yl)-5-((2-methoxyethoxy)methyl)-7-oxo-3-phenyl-4,7-dihydropyrazolo[1,5-a]pyrimidine-2-carbonitrile]
< 20 µM | < 20 µM | COc1cccc2oc(-c3c(C(=O)Nc4cn[nH]c4)[nH]c4c(-c5ccccc5)c(C(F)(F)F)nn4c3=O)nc12 [Compound C1244, 6-(4-methoxybenzo[d]oxazol-2-yl)-7-oxo-3-phenyl-N-(1H-pyrazol-4-yl)-2-(trifluoromethyl)-4,7-dihydropyrazolo[1,5-a]pyrimidine-5-carboxamide]
< 20 µM | > 100 µM | COc1cccc2oc(-c3c(C(=O)NCc4cc[nH]n4)[nH]c4c(-c5ccccc5)c(C(F)(F)F)nn4c3=O)nc12 [Compound C1245, N-((1H-pyrazol-3-yl)methyl)-6-(4-methoxybenzo[d]oxazol-2-yl)-7-oxo-3-phenyl-2-(trifluoromethyl)-4,7-dihydropyrazolo[1,5-a]pyrimidine-5-carboxamide]
< 20 µM | > 100 µM | COCc1[nH]c2c(-c3ccccc3)c(C#N)nn2c(=O)c1-c1nc2c(OC)nccc2o1 [Compound C1246, 5-(methoxymethyl)-6-(4-methoxyoxazolo[4,5-c]pyridin-2-yl)-7-oxo-3-phenyl-4,7-dihydropyrazolo[1,5-a]pyrimidine-2-carbonitrile]
